Measured values published in publication PMC467089, “Click estradiol dimers with novel aromatic bridging units: synthesis and anticancer evaluation” (Journal of Enzyme Inhibition and Medicinal Chemistry, 2024).

Key:
[1] = MTS cytotoxicity assay, BJ; type: cell-based; conditions: human, BJ cells (non-tumour skin fibroblasts); MTS assay, 72-h incubation, mean ± SD of 3 independent experiments; read-out: IC50 cytotoxic activity BJ
How it was run: (§1)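 Viability is measured by MTS after cells, seeded overnight, receive fourfold-diluted compounds for 72 h at 37 °C.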

[2] = system: K562-TAX (paclitaxel-resistant variant of K562); assay: MTS cytotoxicity assay, K562-TAX; type: cell-based, human; conditions: Homo sapiens, K562-Tax; MTS assay, 72-h incubation, mean ± SD of 3 independent experiments; read-out: IC50 cytotoxic activity K562-TAX
How it was run: as §1

[3] = system: A549 (lung adenocarcinoma); assay: MTS cytotoxicity assay, A549; type: cell-based, human; conditions: MTS assay, 72-h incubation, mean ± SD of 3 independent experiments; for IC50: Homo sapiens, A549, read-out: IC50 cytotoxic activity A549
How it was run: as §1

[4] = system: CEM-DNR (daunorubicin resistant variant of CCRF-CEM); assay: MTS cytotoxicity assay, CEM-DNR; type: cell-based, human; conditions: Homo sapiens, CEM-DNR; MTS assay, 72-h incubation, mean ± SD of 3 independent experiments; read-out: IC50 cytotoxic activity CEM-DNR
How it was run: as §1

CCRF-CEM lymphoblasts [5] = assay: BrU incorporation analysis (RNA synthesis); type: cell-based, human; conditions: for RNA synthesis, BrU incorporation (in words): 1× and 5×IC50, 24 h, gated remaining live cells
How it was run: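 CCRF-CEM cells were treated with compounds for 24 h, then pulsed with 1 mM BrU for 30 min and fixed in 1% paraformaldehyde/0.05% NP-40. BrU was detected with a cross-reacting anti-BrdU antibody and FITC secondary, with propidium iodide/RNase counterstain; value is percentage of BrU-positive cells by flow cytometry.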

[6] = system: HCT116 (colorectal adenocarcinoma); assay: MTS cytotoxicity assay, HCT116; type: cell-based; conditions: Homo sapiens, HCT-116; MTS assay, 72-h incubation, mean ± SD of 3 independent experiments; read-out: IC50 cytotoxic activity HCT116
How it was run: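 Culture medium carried 10% foetal calf serum plus antibiotics. Treatment lasted 72 h with a fourfold dilution series, followed by MTS detection, in technical duplicate across three biological replicates.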

CCRF-CEM lymphoblasts [7] = assay: BrDU incorporation analysis (DNA synthesis); type: cell-based, human
How it was run: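 CCRF-CEM cells exposed to compounds for 24 h, pulse-labelled 30 min before harvest with 10 μM BrDU, ethanol-fixed, HCl-denatured, stained with anti-BrdU/FITC plus propidium iodide and RNase. Flow cytometry (488 nm) gives the percentage of BrDU-positive cells.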

[8] = MTS cytotoxicity assay, HUVEC; type: cell-based; conditions: human, HUVEC cells (umbilical vein endothelial cells); MTS assay, 72-h incubation, mean ± SD of 3 independent experiments; read-out: IC50 cytotoxic activity HUVEC
How it was run: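 Overnight-seeded cells → fourfold serial compound dilutions (DMSO) → 72 h, 37 °C, 5% CO2 → MTS added. Duplicates ×3 biological reps.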

U2OS (osteosarcoma) = assay: MTS cytotoxicity assay, U2OS; type: cell-based, human; conditions: MTS assay, 72-h incubation, mean ± SD of 3 independent experiments; for IC50: Homo sapiens, U2OS, read-out: IC50 cytotoxic activity U2OS
How it was run: as §1

Structure (SMILES): COc1cc(Cn2cc([C@]3(O)CC[C@H]4[C@@H]5CCc6cc(O)ccc6[C@H]5CC[C@@]43C)nn2)cc(Cn2cc([C@]3(O)CC[C@H]4[C@@H]5CCc6cc(O)ccc6[C@H]5CC[C@@]43C)nn2)c1 [ED3, (17β,17′β)-17,17′-[(5-Methoxybenzene-1,3-diyl)bis(methanediyl-1H-1,2,3-triazole-1,4-diyl)]bisestra-1,3,5(10)-triene-3,17-diol]
- IC50 at 72 h [1]: > 50 µM
- IC50 [2]: > 50 µM
- IC50 [3]: 0.6 ± 0.047 µM
- IC50 [4]: > 50 µM
- RNA synthesis, BrU incorporation (in words) (CCRF-CEM lymphoblasts [5]): high rate of RNA synthesis
- BrU, % of positive cells (CCRF-CEM lymphoblasts [5]; 1×IC50, 24 h): 68.66%
- BrU, % of positive cells (CCRF-CEM lymphoblasts [5]; 5×IC50, 24 h): 60.00%
- IC50 [6]: 0.47 ± 0.022 µM
- BrDU, % of positive cells (CCRF-CEM lymphoblasts [7]; 1×IC50, 24 h): 7.81%
- BrDU, % of positive cells (CCRF-CEM lymphoblasts [7]; 5×IC50, 24 h): 3.23%
- IC50 at 72 h [8]: < 0.0122 µM
- IC50 (U2OS (osteosarcoma)): 0.61 ± 0.033 µM

Structure (SMILES): C[C@]12CC[C@@H]3c4ccc(O)cc4CC[C@H]3[C@@H]1CC[C@@]2(O)c1cn(Cc2cccc(Cn3cc([C@]4(O)CC[C@H]5[C@@H]6CCc7cc(O)ccc7[C@H]6CC[C@@]54C)nn3)n2)nn1 [ED, reference compound]
- IC50 at 72 h [1]: > 50 µM
- IC50 [2]: > 50 µM
- IC50 [3]: > 50 µM
- IC50 [4]: > 50 µM
- BrU, % of positive cells (CCRF-CEM lymphoblasts [5]; 1×IC50, 24 h): 34.33%
- BrU, % of positive cells (CCRF-CEM lymphoblasts [5]; 5×IC50, 24 h): 15.43%
- IC50 [6]: 0.95 ± 0.11 µM
- BrDU, % of positive cells (CCRF-CEM lymphoblasts [7]; 1×IC50, 24 h): 19.54%
- BrDU, % of positive cells (CCRF-CEM lymphoblasts [7]; 5×IC50, 24 h): 15.94%
- IC50 at 72 h [8]: 0.0244 ± 0.017 µM
- IC50 (U2OS (osteosarcoma)): 6.23 ± 0.7 µM

Structure (SMILES): C[C@]12CC[C@@H]3c4ccc(O)cc4CC[C@H]3[C@@H]1CC[C@@]2(O)c1cn(Cc2cc(Cn3cc([C@]4(O)CC[C@H]5[C@@H]6CCc7cc(O)ccc7[C@H]6CC[C@@]54C)nn3)cc(OCCO)c2)nn1 [ED5, (17β,17′β)-17,17′-{[5-(2-Hydroxyethoxy)benzene-1,3-diyl]bis(methanediyl-1H-1,2,3-triazole-1,4-diyl)}bisestra-1,3,5(10)-triene-3,17-diol]
- IC50 at 72 h [1]: > 50 µM
- IC50 [2]: > 50 µM
- IC50 [3]: > 50 µM
- IC50 cytotoxic activity A549 [3]: did not exhibit activity
- IC50 [4]: > 50 µM
- RNA synthesis, BrU incorporation (in words) (CCRF-CEM lymphoblasts [5]): high rate of RNA synthesis
- BrU, % of positive cells (CCRF-CEM lymphoblasts [5]; 1×IC50, 24 h): 65.14%
- BrU, % of positive cells (CCRF-CEM lymphoblasts [5]; 5×IC50, 24 h): 66.40%
- IC50 [6]: 2.02 ± 0.19 µM
- BrDU, % of positive cells (CCRF-CEM lymphoblasts [7]; 1×IC50, 24 h): 32.15%
- BrDU, % of positive cells (CCRF-CEM lymphoblasts [7]; 5×IC50, 24 h): 9.59%
- IC50 at 72 h [8]: < 0.0122 µM
- IC50 (U2OS (osteosarcoma)): > 50 µM
- IC50 cytotoxic activity U2OS (U2OS (osteosarcoma)): did not exhibit activity
